Here are results for 6 molecules from patent publication US7071294B1, “Tumor antigen protein art-1 and tumor antigen peptide thereof” (Green Peptide Co., Ltd., priority 1998, dated 2006).

Where no end group is shown, it is not given here.

The subject of assay [1] is KG-CTL. The assay is described as follows: IFN-γ production by KG-CTL in response to HLA-A2402-transfected COS-7 cells pulsed with peptide (ELISA). The conditions noted are these: COS-7 transfected with HLA-A2402 cDNA. Format: cell-based, human. The method, then: A surgical sample taken from a patient with lung cancer was cut into small pieces, and then stirred in a culture fluid containing collagenase and DNAse to suspend cells. The cell suspension was centrifuged using Ficoll Conray solution to separate lymphocytes. The lymphocytes were cultured on 24-well plate in a culture medium consisting of 45% RPMI-1640, 45% AIM-V (GIBCO BRL), and 10% FCS supplemented with 100 U/ml interleukin-2 and 0.1 mM NEAA (GIBCO BRL) (hereinafter referred to as lymphocyte medium). During the first two days of the cultivation, an anti-CD3 antibody NU-T3 (Nichirei Corporation) was added to the culture medium at 1 μg/ml. The cultivation was continued for more than 30 days, and a CTL line that is reactive with some kinds of HLA-A24- or HLA-A2-positive cancer cell lines was established. The established CTL line was named KG-CTL and used in subsequent procedures. The reactivity of KG-CTL to each cancer cell line was examined by inoculating the cancer cell line into 96-well plate at 1×10^4, adding KG-CTL at 1×10^5/well thereto on the following day, culturing the same for additional 18 hours, and then determining amount of interferon-γ (IFN-γ) produced by KG-CTL in the recovered culture medium. Measurement of IFN-γ was conducted by enzyme immunoassay (ELISA). […] Anti-human IFN-γ rabbit polyclonal antibody as detection antibody was then allowed to bind, and after binding to an anti-rabbit immunoglobulin goat antibody labeled with […] (Amersham), the chromophore was developed using Peroxidase Chromophoric Kit T (Sumitomo Bakelite), followed by measuring absorbance at 405 nm. The absorbance was compared with that obtained with standard IFN-γ to determine the amount of IFN-γ in the sample. […] The cells were then cultured with 2×10^4 KG-CTLs for 18 hours, and the amount of IFN-γ produced by KG-CTL in the culture supernatant was determined by the ELISA method, thus identifying tumor antigen peptides.

Assay [2] concerns peripheral blood lymphocytes. The assay is described as follows: CTL induction from peripheral blood lymphocytes by tumor antigen peptides; IFN-γ produced in response to MT-2 target cells (ELISA). Format: cell-based, human. The settings on record: for IFN-γ in Supernatant: HLA-A24 heterozygous healthy donor lymphocytes stimulated three times with 10 μM peptide, 8×10^4 lymphocytes vs 1×10^4 MT-2 target cells, no peptide gave 3; for IFN-γ production by peptide-stimulated peripheral blood lymphocytes in response to the target cell (CTL induction): MT-2 target cells, not seen with no stimulation. The procedure: Using the Ficoll method, lymphocytes were separated from peripheral blood of healthy donors who were heterozygous for A24 in the HLA-A locus. The lymphocytes were placed into wells of a 24-well plate at 2×10^6 cells/well, and cultured in the lymphocyte medium. The above tumor antigen peptides were added to the culture medium at 10 μM to stimulate the peripheral blood lymphocytes. One week later, the above tumor antigen peptides were added to attain 10 μM together with about 2×10^5 cells of X-radiated (50 Gy) peripheral blood lymphocytes for the second stimulation. Additional one week later, the third stimulation was conducted in a similar manner. Cultured lymphocytes were harvested one week after the third stimulation. Using as target cells (1×10^4 cells) MT-2, which is an HLA-A2402-positive leukemia cell line expressing the tumor antigen peptide, the amount of IFN-γ in the culture medium produced by the above lymphocytes (8×10^4 cells) in response to the target cells was measured in accordance with ELISA method.

For assay [3], the target named is T1, HLA-A2402 expressed on COS-7 cells transfected with a recombinant plasmid for HLA-A2402 cDNA (human, UniProt P04439-2 25-302 at identity 0.92)).
T1 MHC heavy: not shown
The experiment in a line: cell-based or functional assay.

Consider EYCLKFTKL [188–196], for which, in assay [1], the “Reactivity of KG-CTLs compared to cells pulsed with no peptide” value is “reacted more strongly”. In assay [2], the “IFN-γ in Supernatant” value came to 147 pg/mL and the “IFN-γ production by peptide-stimulated peripheral blood lymphocytes in response to the target cell (CTL induction)” value was “produced IFN-γ in response to the target cell”.
With LYQAVATI [158–165], the “Reactivity of KG-CTLs compared to cells pulsed with no peptide” value in assay [1] is “reacted more strongly”. Also, in assay [2], the “IFN-γ in Supernatant” value was 330 pg/mL and the “IFN-γ production by peptide-stimulated peripheral blood lymphocytes in response to the target cell (CTL induction)” value is “produced IFN-γ in response to the target cell”.
For GFDCANESVL [170–179], in that order: “reacted more strongly”, 237 pg/mL and “produced IFN-γ in response to the target cell”.
Take EYCLKFTKL: the “Amount of IFN-γ produced by KG-CTL in the response” value in assay [3] is 399 pg/mL.
Same read-out and setting: the same measure for LYQAVATI: 289 pg/mL; for GFDCANESVL: 458 pg/mL.
